target: T1, hNav1.7 and the β1 subunit (Homo sapiens, UniProt Q15858); assay: Tritiated compound competitive binding to membranes from cells heterologously expressing hNav1.7 and the β1 subunit (LBA); conditions: competition with 100 pM [3H]compound, 18 h, room temperature; IC50 by 4 parameter logistic model
T1 construct: expressed in transfected cells
Summary of the method: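 Membranes were incubated 18 h at room temperature with 100 pM [3H]-labelled NaV1.7 inhibitor and increasing test compound in 100 mM NaCl, 20 mM Tris HCl, pH 7.4. Bound radioligand was filtered on PEI-soaked GF/C, washed, and counted by scintillation. IC50 from a 4-parameter logistic fit of % inhibition.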

T1 sequence (Q15858 whole entry): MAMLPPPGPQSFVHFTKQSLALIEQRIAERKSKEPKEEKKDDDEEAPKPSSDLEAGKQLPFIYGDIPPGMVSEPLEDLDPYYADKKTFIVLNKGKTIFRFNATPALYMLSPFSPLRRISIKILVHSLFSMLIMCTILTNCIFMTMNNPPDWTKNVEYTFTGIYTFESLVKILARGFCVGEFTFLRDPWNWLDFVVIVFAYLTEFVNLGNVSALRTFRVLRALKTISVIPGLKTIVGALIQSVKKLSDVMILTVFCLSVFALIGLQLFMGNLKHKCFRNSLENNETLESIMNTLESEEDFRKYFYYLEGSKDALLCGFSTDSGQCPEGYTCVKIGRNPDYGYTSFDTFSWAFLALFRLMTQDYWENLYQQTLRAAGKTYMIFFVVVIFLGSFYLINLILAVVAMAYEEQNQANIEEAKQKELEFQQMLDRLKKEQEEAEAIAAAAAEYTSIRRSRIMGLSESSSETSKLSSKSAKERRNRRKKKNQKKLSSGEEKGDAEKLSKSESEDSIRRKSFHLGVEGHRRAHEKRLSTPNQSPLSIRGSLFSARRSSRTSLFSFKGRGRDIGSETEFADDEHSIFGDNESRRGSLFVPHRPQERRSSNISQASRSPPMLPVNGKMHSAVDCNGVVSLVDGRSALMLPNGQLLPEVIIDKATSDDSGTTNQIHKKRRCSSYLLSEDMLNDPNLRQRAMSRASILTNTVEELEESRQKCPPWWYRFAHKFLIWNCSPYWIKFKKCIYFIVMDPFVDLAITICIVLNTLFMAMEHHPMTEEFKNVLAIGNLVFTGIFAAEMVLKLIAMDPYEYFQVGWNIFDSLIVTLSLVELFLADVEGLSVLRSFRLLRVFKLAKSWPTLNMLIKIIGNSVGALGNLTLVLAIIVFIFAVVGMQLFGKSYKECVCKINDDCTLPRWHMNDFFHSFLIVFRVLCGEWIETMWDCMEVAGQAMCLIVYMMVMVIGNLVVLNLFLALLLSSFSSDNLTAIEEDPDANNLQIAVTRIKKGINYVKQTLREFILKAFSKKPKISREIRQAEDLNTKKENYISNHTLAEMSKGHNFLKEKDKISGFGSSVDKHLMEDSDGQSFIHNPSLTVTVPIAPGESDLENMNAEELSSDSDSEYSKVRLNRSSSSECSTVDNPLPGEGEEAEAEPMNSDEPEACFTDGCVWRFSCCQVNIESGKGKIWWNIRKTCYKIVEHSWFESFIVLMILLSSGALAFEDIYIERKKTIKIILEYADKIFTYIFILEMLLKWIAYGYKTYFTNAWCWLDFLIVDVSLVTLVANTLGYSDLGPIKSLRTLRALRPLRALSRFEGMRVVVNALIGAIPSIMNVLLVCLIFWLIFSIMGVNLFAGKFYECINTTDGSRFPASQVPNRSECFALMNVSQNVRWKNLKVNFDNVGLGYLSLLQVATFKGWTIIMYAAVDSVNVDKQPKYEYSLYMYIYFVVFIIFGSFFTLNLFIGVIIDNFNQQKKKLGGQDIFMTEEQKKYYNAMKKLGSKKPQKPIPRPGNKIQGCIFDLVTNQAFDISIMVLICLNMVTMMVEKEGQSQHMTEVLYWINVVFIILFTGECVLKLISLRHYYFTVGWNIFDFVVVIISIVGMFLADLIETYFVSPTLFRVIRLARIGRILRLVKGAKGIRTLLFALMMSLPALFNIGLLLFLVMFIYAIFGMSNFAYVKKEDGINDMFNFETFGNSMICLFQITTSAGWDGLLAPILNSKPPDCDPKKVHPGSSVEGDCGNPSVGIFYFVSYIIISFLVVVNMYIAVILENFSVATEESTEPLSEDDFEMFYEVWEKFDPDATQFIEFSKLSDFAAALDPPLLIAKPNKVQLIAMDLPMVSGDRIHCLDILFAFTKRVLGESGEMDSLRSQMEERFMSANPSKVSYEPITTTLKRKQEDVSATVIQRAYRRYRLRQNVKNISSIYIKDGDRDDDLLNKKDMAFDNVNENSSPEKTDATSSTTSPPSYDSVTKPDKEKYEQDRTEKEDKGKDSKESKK
T1 sequence (Q07699 19-218 partner): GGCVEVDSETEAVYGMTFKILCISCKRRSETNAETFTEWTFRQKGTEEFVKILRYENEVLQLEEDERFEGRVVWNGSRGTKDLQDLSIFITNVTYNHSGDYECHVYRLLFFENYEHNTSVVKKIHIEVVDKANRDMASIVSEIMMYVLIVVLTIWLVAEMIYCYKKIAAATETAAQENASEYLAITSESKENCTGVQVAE

First: O=S(=O)(Nc1ncns1)c1ccc2c(c1)OCC[C@@H]2N1CCCC[C@@H]1CCO (single isomer, unassigned) [Example 152]
Second: Cn1nccc1[C@@H]1CCCCN1[C@H]1CCOc2cc(S(=O)(=O)Nc3ncns3)ccc21 [Example 41, (S)-4-((S)-2-(1-methyl-1H-pyrazol-5-yl)piperidin-1-yl)-N-(1,2,4-thiadiazol-5-yl)chromane-7-sulfonamide]
The “Nav1.7 (LBA)” value of the first is 540-fold higher: 3.31 µM for the first, 0.00609 µM for the second.

Compared with O=S(=O)(Nc1ncns1)c1ccc2c(c1)OCC[C@@H]2N1CCCC[C@H]1C1CCCCC1 (single isomer, unassigned) [Example 155], O=S(=O)(Nc1ncns1)c1ccc2c(c1)OCC[C@@H]2N1CCCC[C@@H]1C1CCCCC1 (single isomer, unassigned) [Example 156] is 4.8-fold lower in “Nav1.7 (LBA)” value: 4.35 µM for the first, 0.907 µM for the second.

Compared with O=S(=O)(Nc1ncns1)c1ccc2c(c1)C(F)(F)CC[C@@H]2N1CCCC[C@H]1c1cccnc1 (single isomer, unassigned) [Example 227], O=S(=O)(Nc1ncns1)c1ccc2c(c1)C(F)(F)CC[C@H]2N1CCCC[C@H]1c1cccnc1 (single isomer, unassigned) [Example 228] is 2-fold higher in “Nav1.7 (LBA)” value: 0.249 µM for the first, 0.504 µM for the second.

Going from Cn1nccc1[C@H]1CCCCN1[C@H]1CCOc2cc(S(=O)(=O)Nc3ncns3)ccc21 [Example 42, (S)-4-((R)-2-(1-methyl-1H-pyrazol-5-yl)piperidin-1-yl)-N-(1,2,4-thiadiazol-5-yl)chromane-7-sulfonamide] to O=S(=O)(Nc1ncns1)c1ccc2c(c1)OCCC2N1CCOC[C@H]1c1ccccc1 (stereo partly drawn) [Example 75, 4-((R)-3-phenylmorpholino)-N-(1,2,4-thiadiazol-5-yl)chromane-7-sulfonamide], the “Nav1.7 (LBA)” value falls from 0.142 µM to 0.0859 µM (1.7-fold).

Compared with O=S(=O)(Nc1ncns1)c1ccc2c(c1)OCC[C@@H]2N1CCC(C(F)(F)F)CC1 [Example 44, (S)—N-(1,2,4-thiadiazol-5-yl)-4-(4-(trifluoromethyl)piperidin-1-yl)chromane-7-sulfonamide], O=S(=O)(Nc1ncns1)c1ccc2c(c1)OCC[C@@H]2N1CCC(C(F)F)CC1 [Example 150, (S)-4-(4-(difluoromethyl)piperidin-1-yl)-N-(1,2,4-thiadiazol-5-yl)chromane-7-sulfonamide] is 2.6-fold higher in “Nav1.7 (LBA)” value: 0.551 µM for the first, 1.44 µM for the second.

First: O=S(=O)(Nc1ncns1)c1ccc(CN2CCC[C@H]2c2ccccc2)c(Cl)c1 [Example 48, (S)-3-chloro-4-((2-phenylpyrrolidin-1-yl)methyl)-N-(1,2,4-thiadiazol-5-yl)benzenesulfonamide]
Second: O=S(=O)(Nc1ncns1)c1ccc(CN2CCC[C@@H]2c2ccccc2)c(Cl)c1 [Example 49, (R)-3-chloro-4-((2-phenylpyrrolidin-1-yl)methyl)-N-(1,2,4-thiadiazol-5-yl)benzenesulfonamide]
The “Nav1.7 (LBA)” value of the first is 4.6-fold lower: 1.48 µM for the first, 6.81 µM for the second.

First: O=S(=O)(Nc1ncns1)c1ccc(CN2CCCCC2c2ccccc2)c(Cl)c1 (stereo not shown) [Example 63, 3-chloro-4-((2-phenylpiperidin-1-yl)methyl)-N-(1,2,4-thiadiazol-5-yl)benzenesulfonamide]
Second: O=S(=O)(Nc1ncns1)c1ccc(CN2CCCC[C@@H]2c2ccccc2)c(Cl)c1 [Example 64, (R)-3-chloro-4-((2-phenylpiperidin-1-yl)methyl)-N-(1,2,4-thiadiazol-5-yl)benzenesulfonamide]
The “Nav1.7 (LBA)” value of the first is 1.6-fold lower: 0.609 µM for the first, 0.965 µM for the second.

Going from O=S(=O)(Nc1ncns1)c1ccc(CN2CCCC[C@H]2c2ccccc2)c(Cl)c1 [Example 65, (S)-3-chloro-4-((2-phenylpiperidin-1-yl)methyl)-N-(1,2,4-thiadiazol-5-yl)benzenesulfonamide] to O=S(=O)(Nc1ncns1)c1cc(Cl)c(CN2CCCCC2c2ccccc2)cc1F (stereo not shown) [Example 68, 5-chloro-2-fluoro-4-((2-phenylpiperidin-1-yl)methyl)-N-(1,2,4-thiadiazol-5-yl)benzenesulfonamide], the “Nav1.7 (LBA)” value falls from 5.51 µM to 0.334 µM (16-fold).

O=S(=O)(Nc1ncns1)c1cc(Cl)c(CN2CCCCC2c2ccncc2)cc1F (stereo not shown) [Example 69, 5-chloro-2-fluoro-4-((2-(pyridin-4-yl)piperidin-1-yl)methyl)-N-(1,2,4-thiadiazol-5-yl)benzenesulfonamide] and O=S(=O)(Nc1ncns1)c1cc(Cl)c(CN2CCCC[C@H]2c2cccnc2)cc1F [Example 70, (S)-5-chloro-2-fluoro-4-((2-(pyridin-3-yl)piperidin-1-yl)methyl)-N-(1,2,4-thiadiazol-5-yl)benzenesulfonamide] are within 1.5-fold of each other in “Nav1.7 (LBA)” value: 0.21 µM for the first, 0.175 µM for the second.

Compared with O=S(=O)(Nc1cccc(F)n1)c1ccc(CN2CCCC[C@H]2c2ccccc2)c(Cl)c1 [Example 73, (S)-3-chloro-N-(6-fluoropyridin-2-yl)-4-((2-phenylpiperidin-1-yl)methyl)-benzenesulfonamide], O=S(=O)(Nc1cccc(F)n1)c1ccc(CN2CCCC[C@@H]2c2ccccc2)c(Cl)c1 [Example 74, (R)-3-chloro-N-(6-fluoropyridin-2-yl)-4-((2-phenylpiperidin-1-yl)methyl)-benzenesulfonamide] is 2.5-fold lower in “Nav1.7 (LBA)” value: 6.8 µM for the first, 2.67 µM for the second.

Compared with CN(Cc1ccccc1)[C@H]1CCOc2cc(S(=O)(=O)Nc3ncns3)c(F)cc21 [Example 89, (S)-4-(benzyl(methyl)amino)-6-fluoro-N-(1,2,4-thiadiazol-5-yl)chromane-7-sulfonamide], CN(Cc1ccccc1)[C@H]1CCOc2cc(S(=O)(=O)Nc3ncns3)ccc21 [Example 120, (S)-4-(benzyl(methyl)amino)-N-(1,2,4-thiadiazol-5-yl)chroman-7-sulfonamide] is 3.9-fold higher in “Nav1.7 (LBA)” value: 0.096 µM for the first, 0.376 µM for the second.

Compared with O=S(=O)(Nc1ncns1)c1ccc2c(c1)OCC[C@@H]2N1CC[C@@H](C(F)(F)F)C[C@H]1c1ccc(F)c(F)c1 [Example 106, (S)-4-((2S,4R)-2-(3,4-difluorophenyl)-4-(trifluoromethyl)piperidin-1-yl)-N-(1,2,4-thiadiazol-5-yl)chroman-7-sulfonamide], O=S(=O)(Nc1ncns1)c1ccc2c(c1)OCC[C@@H]2N1CC[C@@H](C(F)(F)F)C[C@@H]1c1ccc(F)c(F)c1 [Example 107, (S)-4-((2R,4R)-2-(3,4-difluorophenyl)-4-(trifluoromethyl)piperidin-1-yl)-N-(1,2,4-thiadiazol-5-yl)chroman-7-sulfonamide] is 1200-fold higher in “Nav1.7 (LBA)” value: 0.0016 µM for the first, 2.0 µM for the second.

First: O=S(=O)(Nc1ncns1)c1cc(F)c(CN2CCC3(CC3)C[C@H]2c2ccccc2)cc1F [Example 110, (S)-2,5-difluoro-4-((5-phenyl-6-azaspiro[2.5]octan-6-yl)methyl)-N-(1,2,4-thiadiazol-5-yl)benzenesulfonamide]
Second: O=S(=O)(Nc1ncns1)c1cc(F)c(CN2CC[C@@H](O)C[C@H]2c2ccccc2)cc1F [Example 114, 2,5-Difluoro-4-(((2S,4R)-4-hydroxy-2-phenylpiperidin-1-yl)methyl)-N-(1,2,4-thiadiazol-5-yl)benzenesulfonamide]
The “Nav1.7 (LBA)” value of the first is 29-fold lower: 0.337 µM for the first, 9.65 µM for the second.

Going from O=S(=O)(Nc1ncns1)c1cc(F)c(CN2CC[C@H](OC(F)(F)F)C[C@@H]2c2ccccc2)cc1F [Example 112, 2,5-Difluoro-4-(((2R,4S)-2-phenyl-4-(trifluoromethoxy)piperidin-1-yl)methyl)-N-(1,2,4-thiadiazol-5-yl)benzenesulfonamide] to N#Cc1cc(S(=O)(=O)Nc2ncns2)ccc1CN1CC[C@@H](C(F)(F)F)C[C@H]1c1ccccc1 [Example 119, 3-Cyano-4-(((2S,4R)-2-phenyl-4-(trifluoromethyl)piperidin-1-yl)methyl)-N-(1,2,4-thiadiazol-5-yl)benzenesulfonamide], the “Nav1.7 (LBA)” value falls from 4.21 µM to 0.0181 µM (230-fold).

Compared with Nc1[nH]ncc1C1CCCCN1Cc1cc(F)c(S(=O)(=O)Nc2ncns2)cc1F (stereo not shown) [Example 118, 4-((2-(5-Amino-1H-pyrazol-4-yl)piperidin-1-yl)methyl)-2,5-difluoro-N-(1,2,4-thiadiazol-5-yl)benzenesulfonamide], N#CC1CCN([C@H]2CCOc3cc(S(=O)(=O)Nc4ncns4)ccc32)CC1 [Example 147, (S)-4-(4-cyanopiperidine-1-yl)-N-(1,2,4-thiadiazol-5-yl)chromane-7-sulfonamide] is 2.4-fold higher in “Nav1.7 (LBA)” value: 2.26 µM for the first, 5.36 µM for the second.

First: CC1(C#N)CCN([C@H]2CCOc3cc(S(=O)(=O)Nc4ncns4)ccc32)CC1 [Example 149, (S)-4-(4-cyano-4-methylpiperidin-1-yl)-N-(1,2,4-thiadiazol-5-yl)chromane-7-sulfonamide]
Second: N#CC1CC12CCN([C@H]1CCOc3cc(S(=O)(=O)Nc4ncns4)ccc31)CC2 (stereo partly shown) [Example 154]
The “Nav1.7 (LBA)” value of the first is 1.9-fold higher: 8.6 µM for the first, 4.52 µM for the second.

First: O=S(=O)(Nc1ncns1)c1ccc2c(c1)OCC[C@@H]2N1CCC2(CC1)COC2 [Example 153, (S)-4-(2-oxa-7-azaspiro[3.5]nonan-7-yl)-N-(1,2,4-thiadiazol-5-yl)chromane-7-sulfonamide]
Second: CS(=O)(=O)[C@@H]1CCN([C@H]2CCOc3cc(S(=O)(=O)Nc4ncns4)ccc32)[C@H](c2ccc(F)cc2)C1 [Example 161, (S)-4-((2S,4R)-2-(4-fluorophenyl)-4-(methylsulfonyl)piperidin-1-yl)-N-(1,2,4-thiadiazol-5-yl)chroman-7-sulfonamide]
The “Nav1.7 (LBA)” value of the first is 640-fold higher: 5.5 µM for the first, 0.00853 µM for the second.

Compared with Cn1nccc1[C@@H]1C[C@H](C(F)(F)F)CCN1[C@@H]1CCOc2cc(S(=O)(=O)Nc3nccs3)c(F)cc21 [Example 159], Cn1nccc1[C@H]1C[C@@H](C(F)(F)F)CCN1[C@@H]1CCOc2cc(S(=O)(=O)Nc3nccs3)c(F)cc21 [Example 160] is 2.5-fold higher in “Nav1.7 (LBA)” value: 0.18 µM for the first, 0.442 µM for the second.

CS(=O)(=O)[C@@H]1CCN([C@@H]2CCOc3cc(S(=O)(=O)Nc4ncns4)ccc32)[C@H](c2ccc(F)cc2)C1 [Example 162, (R)-4-((2S,4R)-2-(4-fluorophenyl)-4-(methylsulfonyl)piperidin-1-yl)-N-(1,2,4-thiadiazol-5-yl)chroman-7-sulfonamide] was tested, and the “Nav1.7 (LBA)” value was 3 µM.
